Assay results from ChEMBL document CHEMBL5726250, “AMPK-activating heterocyclic compounds and methods for using the same” (2017).

Molecular target: 5'-AMP-activated protein kinase catalytic subunit alpha-2 (Homo sapiens, UniProt P54646)
Assay: Enzyme-Linked Immunosorbent Assay: Compounds were assayed for their ability to activate AMPK using an enzyme-linked immunosorbent assay. Reagents and procedures for measuring AMPK activation are well known and kits for AMPK activation assays are commercially available.

5'-AMP-activated protein kinase catalytic subunit alpha-2, sequence (P54646 whole entry): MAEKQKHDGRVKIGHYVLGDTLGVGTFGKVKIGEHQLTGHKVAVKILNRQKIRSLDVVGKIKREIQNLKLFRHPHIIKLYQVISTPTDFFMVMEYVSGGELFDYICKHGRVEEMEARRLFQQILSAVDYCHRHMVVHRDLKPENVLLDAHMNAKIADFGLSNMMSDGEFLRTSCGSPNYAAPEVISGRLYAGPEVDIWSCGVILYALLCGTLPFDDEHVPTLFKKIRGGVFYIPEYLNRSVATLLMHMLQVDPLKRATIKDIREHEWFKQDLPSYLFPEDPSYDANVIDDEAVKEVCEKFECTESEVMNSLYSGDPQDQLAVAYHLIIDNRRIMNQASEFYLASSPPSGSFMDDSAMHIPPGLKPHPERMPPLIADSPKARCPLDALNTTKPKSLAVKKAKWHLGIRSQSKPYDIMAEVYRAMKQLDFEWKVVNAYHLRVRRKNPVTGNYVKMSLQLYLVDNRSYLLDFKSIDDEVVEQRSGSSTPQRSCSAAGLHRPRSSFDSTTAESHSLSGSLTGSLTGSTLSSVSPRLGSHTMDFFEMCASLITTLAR

| SMILES | EC50 [µM] |
| --- | --- |
| O=C(Nc1ccc(-c2ccc([N+](=O)[O-])cc2)cc1)c1ccc(C(=O)N2CCN(Cc3ccc(F)cc3)CC2)cn1 | > 10 |
| O=C(Nc1ccccc1-c1ccccc1)c1ccc(C(=O)N2CCN(Cc3ccc(F)cc3)CC2)cn1 | > 10 |
